Assay results: US8592446B2, “[1,10]-phenanthroline derivatives for the treatment of neurodegenerative or haematological diseases” (Noscira, S.A., priority 2007, dated 2013)
Where two headings read alike, the source gives them in different places.

Columns and labels:
Type in all cases: cell-based
[1] = tested on: SH-SY5Y human neuroblastoma cells; assay: Toxicity: LDH activity release in SH-SY5Y cells; conditions: 24 h; for Maximum concentration tested for toxicity: increasing concentrations from 1 μM up to 1 mM
Experimental: The potential effects on cell viability of the assayed compounds are assayed in SH-SY5Y human neuroblastoma cells, by quantification of Lactate dehydrogenase (LDH) activity release. SH-SY5Y human neuroblastoma cells are seeded into 96-well culture plates at 10^4 cells/well. The medium is then removed and the cells incubated with different concentrations of the compounds during 24 h. The compounds are tested at increasing concentrations starting from 1 μM, in fresh culture medium, in order to find the minimum concentration at which the compounds are toxic, up to a maximum of 1 mM. After 24 h, the medium is removed and cells attached to the bottom of the well are lysed by adding 50 μl of Krebs-Hepes; Triton X-100 1% during 5 minutes at room temperature. For LDH release quantification, the Roche cytotoxicity detection kit (Cat.
No. 11 644 793 001) is used. The LDH activity is measured by its absorbance at 492 nm with reference wavelength 620 nm.
In Table 1, for each compound the maximum concentration at which toxicity was tested is indicated in the second column. In the third column, it is indicated whether at this maximum concentration the compound was toxic or not. All the compounds, with the exception of Compound 3, resulted non-toxic at the concentration for which activity was found, in most of the cases even at a 1000-fold concentration. Thus, the compounds may be considered non-toxic.

[2] = tested on: SH-SY5Y human neuroblastoma cells; assay: Protection against hydrogen peroxide-induced cell death (LDH); conditions: compound 1 h before H2O2 100 μM, 24 h; for minimal effective concentration: Homo sapiens, SH-SY5Y, read-out: Protect. H2O2 (minimum concentration for which protection was determined)
Experimental: The aim of this assay is to determine the neuroprotective effect of the compounds of formula (I), when human neuroblastoma cells are exposed to oxidative stress induced by hydrogen peroxide, which is highly deleterious to the cell and its accumulation causes oxidation of cellular targets such as DNA, proteins, and lipids leading to mutagenesis and cell death.
SH-SY5Y human neuroblastoma cells are seeded into 96-well culture plate at a density of 10^4 cells/well. Cells are exposed to different concentrations of the compound one hour before the treatment with H2O2 100 μM during 24 h. 5 mM N-acetylcysteine (NAC), a known anti-oxidant agent was used as a positive control, and preincubated 1 hour before the treatment with H2O2. After 24 h, the medium is removed and cells attached to the bottom of the well are lysed by adding 50 μl of Triton X-100 1% in Krebs-Hepes during 5 minutes at room temperature. For LDH release quantification, Roche cytotoxicity detection kit (Cat. No. 11 644 793 001) was used.

[3] = tested on: SH-SY5Y human neuroblastoma cells; assay: Protection against 6-OHDA-induced cell death, condition A (10% foetal bovine serum); conditions: preincubated 2 hours, 6-OHDA 75 μM 16 hours, read-out: Protect. 6-OHDA (+ FBS) (minimum concentration with neuroprotective effect)
Excerpt: (§1) The aim of this experiment is to determine the protective effect of the compounds of formula (1) against the toxicity caused by 6-OHDA. This toxin induces a cell death similar to which occurs in Parkinson's disease, destroying dopaminergic neurons (“MPTP and 6-hydroxydopamine-induced neurodegeneration as models for Parkinson's disease: neuroprotective strategies”; Grunblatt E, et al.; J Neurol. 2000 Apr; 247 Suppl 2:II95-102).
(§2) Two or three days before the experiment, the SH-SY5Y human neuroblastoma cells are seeded into 96-well culture plate at a density of 10^4 cells/well. Cells are exposed to the treatment with 6-OHDA and, finally, cell death is measured by LDH quantification. As positive control we used NAC.
• A) NAC and the compound of formula (I) are preincubated during 2 hours before the treatment with 6-OHDA 75 μM during 16 hours. The assay is performed in medium containing 10% Foetal bovine serum.
(§3) For each compound the minimum concentration of compound of formula (I) at which a neuroprotective effect is shown.

[4] = tested on: SH-SY5Y human neuroblastoma cells; assay: Protection against 6-OHDA-induced cell death, condition B (no fetal bovine serum); conditions: preincubated 1 hour, 6-OHDA 50 μM 24 hours, read-out: Protect. 6-OHDA (−FBS) (minimum concentration with neuroprotective effect)
Excerpt: as §1, §2
• B) NAC and the compound of formula (I) are preincubated during 1 hour before the treatment with 6-OHDA 50 μM during 24 hours. The assay is performed in a medium without any fetal bovine serum.
as §3

[5] = tested on: SH-SY5Y cells; assay: Neuroprotection against Aβ25-35 toxicity (LDH assay); conditions: Homo sapiens, pre-treated 1 hour, 200 μM Aβ25-35 24 hours, read-out: Protect. beta-Amyloid25-35 (minimum concentration showing neuroprotection)
Experimental: In order to evaluate potential neuroprotection of compounds, SH-SY5Y cells, cultured in 96-well plates, were pre-treated for 1 hour with the compound at different concentrations and then exposed 24 hours to 200 μM Aβ25-35 (Neosystem) to induce extensive oxidative stress and cell death. The ability of the compound of protecting against this toxicity is then evaluated by measuring intracellular LDH, using the colorimetric LDH assay.
It is widely accepted that the neurotoxic activity of Aβ resides within amino acids 25-35 (see e.g. Yankner B A et al., (1990) Neurotrophic and neurotoxic effects of amyloid β protein: reversal by tachykinin neuropeptides; Science 250:279-282).

[6] = tested on: Aβ (1-40) secretion by CHO7W cells (stably transfected with human APP751 wt cDNA); assay: Inhibition of Aβ(1-40) secretion (ELISA, cellular supernatants); conditions: Aβ 1-40 ELISA; for minimal effective concentration: read-out: Inhibition secretion beta-amyloid (minimum concentration)
Excerpt: To quantitate Aβ secretion ELISA-based method was used. The assay consists in detection of antigen by selective monoclonal anti-Aβ-antibodies at two different epitopes forming a “Sandwich-complex”, that is detected by colorimetric measure due to the binding of a secondary antibody conjugated with peroxidase that catalyses the conversion of a substrate or chromogen, TMB, into a coloured product, directly proportional to the peptide quantity in the sample. The Aβ production has been analyzed by ELISA, using a colorimetric commercial kit: Immunoassay Kit Human β Amyloid 1-40 (Biosource).
Aβ (1-40) were quantified from cellular supernatants. An APP-transfected cell line has been employed for the experiments: CHO7W (stably transfected with human APP751 wt cDNA). The cells were grown in a culture medium consisting of DMEM supplemented with 2% Fetal bovine serum, 1% penicillin-streptomycin, 1% L-glutamine and 200 μg/ml G418. Cells are seeded in 96-well culture microplate, at 5000 cells/well and treatment with different compounds at different concentrations is performed 24 hour after seeding.
OM99-2 (H-5108, Bachem), a BACE inhibitor, was used as Aβ secretion reduction positive control in all the Aβ secretion studies. The cells were treated with this compound at 3 μM concentration, culture media were collected at 24 hours.

Row | Structure (SMILES) | Maximum concentration tested for toxicity [1] [µM] | Toxic at maximum concentration tested (Yes/No) ([1]; at 1 mM) | minimal effective concentration [2] [µM] | minimal effective concentration [3] [µM] | minimal effective concentration [4] [µM] | minimal effective concentration [5] [µM] | Inhibition secretion beta-amyloid (minimum concentration) [6] [mM] | Toxicity at the concentration for which activity was found [1] | Toxic at maximum concentration tested (Yes/No) ([1]; at 10 μM) | Protect. H2O2 (minimum concentration for which protection was determined) [2] [nM] | minimal effective concentration [6] [µM] | Toxic at maximum concentration tested (Yes/No) ([1]; at 1000 μM) | minimal effective concentration ([6]; Homo sapiens, CHO-7W) [µM] | Toxic at maximum concentration tested (Yes/No) ([1]; at 100 μM)
1 | COc1cc(C=NO)nc2c1ccc1cccnc12 [Compound 1, 4-Methoxy-[1,10]phenanthroline-2-carbaldehyde oxime] | 1000 | Yes | 0.05 | 0.5 | 0.5 | 5 | 0.01 |  |  |  |  |  |  | 
2 | ON=Cc1cc(Cl)c2ccc3cccnc3c2n1 [Compound 2, 4-Chloro-[1,10]phenanthroline-2-carbaldehyde oxime] | 1000 | Yes | 0.05 | 0.5 | 0.5 | 10 | 1 |  |  |  |  |  |  | 
3 | O=Cc1cc(Cl)c2ccc3cccnc3c2n1 [Compound 3, 4-Chloro-[1,10]phenanthroline-2-carbaldehyde] | 10 |  | 10 |  | 10 |  |  | exception | Yes |  |  |  |  | 
4 | CCCSc1cc(/C=N/O)nc2c1ccc1cccnc12 [Compound 5, 4-Propylsulfanyl-[1,10]phenanthroline-2-carbaldehyde oxime] | 1000 | Yes |  | 0.05 | 0.5 |  |  |  |  | 5 | 0.001 |  |  | 
5 | CCOc1cc(/C=N/O)nc2c1ccc1cccnc12 [Compound 6, 4-Ethoxy-[1,10]phenanthroline-2-carbaldehyde oxime] | 1000 | Yes |  | 0.05 | 0.5 | 10 |  |  |  | 5 | 0.01 |  |  | 
6 | NCCOc1cc(/C=N/O)nc2c1ccc1cccnc12 [Compound 9, 4-(2-Amino-ethoxy)-[1,10]phenanthroline-2-carbaldehyde oxime] | 10 |  | 5 | 5 | 5 | 5 | 10 |  | No |  |  |  |  | 
7 | CN(C)C(=O)CSc1cc(C=NO)nc2c1ccc1cccnc12 [Compound 12, 2-[2-(Hydroxyimino-methyl)-[1,10]phenanthrolin-4-ylsulfanyl]-N,N-dimethyl-acetamide] | 1000 |  | 0.1 | 0.1 | 0.5 | 10 |  |  |  |  |  | No | 1 | 
8 | ON=Cc1cc(SCC(F)(F)F)c2ccc3cccnc3c2n1 [Compound 13, 4-(2,2,2-Trifluoro-ethylsulfanyl)-[1,10]phenanthroline-2-carbaldehyde oxime] | 1000 |  | 0.5 | 0.5 | 5 | 5 |  |  |  |  |  | No | 10 | 
9 | COC(=O)CSc1cc(C=NO)nc2c1ccc1cccnc12 [Compound 14, [2-(Hydroxyimino-methyl)-[1,10]phenanthrolin-4-ylsulfanyl]-acetic acid methyl ester] | 1000 |  | 0.05 | 0.5 | 0.5 | 10 |  |  |  |  |  | Yes | 0.01 | 
10 | ON=Cc1cc(Sc2nccs2)c2ccc3cccnc3c2n1 [Compound 15, 4-(Thiazol-2-ylsulfanyl)-[1,10]phenanthroline-2-carbaldehyde oxime] | 100 |  | 0.5 |  |  |  |  |  |  |  |  |  | 10 | Yes
11 | Cc1cnc(Sc2cc(C=NO)nc3c2ccc2cccnc23)s1 [Compound 17, 4-(5-Methyl-thiazol-2-ylsulfanyl)-[1,10]phenanthroline-2-carbaldehyde oxime] | 1000 |  | 5 |  |  |  |  |  |  |  |  | Yes | 10 | 
12 | ON=Cc1cc(Sc2nncs2)c2ccc3cccnc3c2n1 [Compound 19, 4-([1,3,4]Thiadiazol-2-ylsulfanyl)-[1,10]phenanthroline-2-carbaldehyde oxime] | 10 |  | 0.5 |  |  |  |  |  | Yes |  |  |  | 1 | 
13 | CSc1cc(C=O)nc2c1ccc1cccnc12 [Compound 20, 4-Methylsulfanyl-[1,10]phenanthroline-2-carbaldehyde] | 10 |  | 0.5 |  |  |  |  |  | Yes |  |  |  | 10 | 
